Data on 3 molecules can be found in patent publication US20240342167A1, “INHIBITORS OF PORCINE REPRODUCTIVE AND RESPIRATORY SYNDROME VIRUS” (University of Connecticut, priority 2023, published 2024).

Test [1] concerns the target T1, GFP.
T1 construct: made in house
The test is described as follows: Microscale thermophoresis (MST) assay: association of B7 with purified GFP (control protein). Format: binding. The conditions noted are these: Monolith NT.115, blue channel, GFP alone (control), values represent Mean, N=3. Here is the method: Values represent Mean, N=3.
(§1) The recombinant pET28b-GFP-SRCR2/SRCR5 constructs were transformed into Escherichia coli strain BL21 (DE3) (New England Biolabs, MA, USA). The transformed clones were cultured at 37° C. in LB broth with […] kanamycin, induced by adding 1 mM isopropyl β-D-1-thiogalactopyranoside at optical density of 0.6-0.8, and then incubated at 37° C. for 3 h. For protein purification, cells were pelleted and resuspended in xTractor Buffer containing DNAse I, lysozyme solution, and Protease Inhibitor Cocktail (Takara Bio USA, Inc., CA). The suspension was sonicated and centrifuged. The supernatant was incubated with equilibrated TALON Metal Affinity Resin (Takara Bio USA, Inc., CA, USA) and then were eluted from resin with the elution buffer (pH 7.0, 150 mM imidazole, 50 mM NaH2PO4, and 300 mM NaCl). The eluted proteins were concentrated and with buffer exchanged to phosphate-buffered saline (pH 7.4) containing 0.05% Tween-20 (PBST) using Protein Concentrator PES, 10 kD MWCO (Pierce Biotechnology, PA, USA).
(§2) The purified GFP, GFP-fused SRCR2 or SRCR5 proteins were mixed with serially diluted compounds. The mixtures were loaded to capillaries and the affinity was measured by Monolith NT.115 (NanoTemper Technologies, Inc., CA, USA) at corresponding MST power with the blue channel. […]

For test [2], the target named is T2, PPI between PRRSV glycoprotein GP2a and CD163-SRCR5 (Sus scrofa, UniProt Q2VL90).
T2 construct: SRCR5 domain of porcine CD163 receptor was amplified from cDNA of pig cells; expressed in transfected cells; host or cells: HEK293T
T2 sequence (Q2VL90 477-577): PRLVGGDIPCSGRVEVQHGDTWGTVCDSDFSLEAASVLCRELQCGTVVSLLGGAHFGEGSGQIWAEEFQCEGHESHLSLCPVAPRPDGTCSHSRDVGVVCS
The test is described as follows: BiFC assay GP2a/SRCR5. In kind it is cell-based, porcine CD163; PRRSV VR2332. The conditions noted are these: for Average GP2a (relative fluorescence intensity, SRCR5/GP2a BiFC): 5 μM, HEK293T, 24 h after transfection, relative to NC (DMSO) = 1.00, n=3, 5 µM. How it is done:
(§3) HEK293T cells were cultivated in 6-well plates in FP medium and transfected with 1 μg XpBiFC-VN155 (I152L)-SRCR5 and 1 μg pBiFC-VC155-GP2/GP4 using Fugene6. After 4 h, cells were digested with 0.05% Typsin-EDTA (ThermoFisher Scientific, MA, USA)) and passaged to 48-well plates which were coated with EmbryoMax 0.1% Gelatin Solution (Sigma-Aldrich, MO, USA) and preloaded with 5 μM B7 analogues. Fluorescence images were taken at 24 h after transfection and fluorescence intensity was measured by image J.

Another test has as its target T3, GFP-fusion CD163-SRCR2 (Sus scrofa, UniProt Q2VL90).
T3 construct: The purified GFP, GFP-fused SRCR2 or SRCR5 proteins were mixed with serially diluted compounds; made in house; host or cells: Escherichia coli BL21 (DE3)
T3 sequence (Q2VL90 158-258 limits assumed): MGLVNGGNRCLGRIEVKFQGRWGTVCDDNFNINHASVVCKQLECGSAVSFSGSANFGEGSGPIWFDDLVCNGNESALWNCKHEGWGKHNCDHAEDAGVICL
The experiment in a line: Microscale thermophoresis (MST), GFP-SRCR2. Format: binding, porcine. How it is done:
as §1
(§4) The purified GFP, GFP-fused SRCR2 or SRCR5 proteins were mixed with serially diluted compounds. The mixtures were loaded to capillaries and the affinity was measured by Monolith NT.115 (NanoTemper Technologies, Inc., CA, USA) at corresponding MST power with the blue channel.
On the technique in general: MST reads how a fluorescent partner responds to local heating, with and without ligand.

Test [3] relates to GFP. The test is described as follows: Microscale thermophoresis (MST), GFP. Format: binding. How it is done: as §1, §4
Test [4] addresses T4, PPI between PRRSV GP4 and CD163-SRCR5 domain (Sus scrofa, UniProt Q2VL90).
T4 construct: SRCR5 domain of porcine CD163 receptor was amplified from cDNA of pig cells; expressed in transfected cells; host or cells: HEK293T
The experiment in a line: BiFC assay GP4/SRCR5. Format: cell-based, porcine CD163; PRRSV VR2332. The conditions noted are these: for Average GP4 (relative fluorescence intensity, SRCR5/GP4 BiFC): 5 μM, HEK293T, 24 h after transfection, relative to NC (DMSO), n=3, 5 µM. Here is the method: as §3

For another test, the target named is T5, GFP-fusion CD163-SRCR5 (Sus scrofa, UniProt Q2VL90).
T5 construct: The purified GFP, GFP-fused SRCR2 or SRCR5 proteins were mixed with serially diluted compounds; made in house; host or cells: Escherichia coli BL21 (DE3)
T5 sequence (Q2VL90 477-577 limits assumed): as the sequence (Q2VL90 477-577) above
The experiment in a line: Microscale thermophoresis (MST), GFP-SRCR5. The conditions noted are these: read-out: dissociation constant (Kd). Format: binding, porcine. Here is the method: as §1, §4

In test [5] the target is T6, GFP-fusion CD163-SRCR5 (GFP-fused SRCR5 domain of porcine CD163, recombinant, expressed in E. coli BL21 (DE3)) (Sus scrofa, UniProt Q2VL90).
T6 construct: GFP and GFP-SRCR2 as controls
T6 sequence (Q2VL90 477-577 limits assumed): as the sequence (Q2VL90 477-577) above
The test is described as follows: Microscale thermophoresis (MST) assay: direct association of compounds with purified GFP-fused CD163-SRCR5. Format: binding. The conditions noted are these: Monolith NT.115, blue channel, values represent Mean, N=3. Here is the method: The amino acids within the LBP and loop 5-6 regions are underlined. […] B7 was placed in position 1 (Boxes) to show the potential disturbing of both conformations. […] B7 was placed in position 2 (Box) to show the potential disturbing of this conformation. […] Values represent Mean, N=3. […] Values represent Mean, N=3. […] Values represent Mean, N=3.
All chemicals (dissolved in 10 mM in DMSO) were designed and provided by Atomwise, Inc. (CA, USA). Compounds were further diluted in PBS (137 mM NaCl, 2.7 mM KCl, 8 mM Na2HPO4, and 2 mM KH2PO4, pH 7.4, Gibco, MA, USA) to 200 μM as the working solution. Pulmonary alveolar macrophages (PAMs) were harvested from healthy 4-6-month Landrace/Yorkshire pigs. Briefly, pig lungs were removed from euthanized pigs during necropsy and transferred on ice to the lab. 200 mL warm PBS with 200 U/mL penicillin and 200 μg/mL streptomycin was injected into trachea and reached major bronchi of both sides of the lungs. Lungs were then massaged and bronchoalveolar lavage fluid (BALF) was collected. PAMs were harvested from the BALF by centrifugation at 400×g for 15 min and washed in PBS twice. Fresh PAMs were counted and frozen in 90% FBS and 10% DMSO (Sigma-Aldrich, MO) in liquid nitrogen. PAMs were cultivated in RPMI-1640 (Gibco, MA) supplemented with 10% FBS, 2 mM Glutamax, 0.1 mM MEM Non-Essential Amino Acids, 1 mM sodium pyruvate, 100 U/mL penicillin and 100 μg/mL streptomycin, and 0.5 μg/mL Amphotericin B. SRCR5 domain of porcine CD163 receptor was amplified from cDNA of pig cells and inserted into pBiFC-VN155 (I152L). PRRSV GP2a and GP4 were amplified from reverse-transcribed genome of PRRSV VR2332 strain and cloned into pBiFC-VC155 vector as previously described (Huang et al., Virol J 17, 116, 2020). Porcine CD163 was cloned into pMXs vector (Cell Biolabs, CA, USA). For protein purification, […] were cloned into pET28b-GFP (Addgene, MA, USA).
The recombinant pET28b-GFP-SRCR2/SRCR5 constructs were transformed into Escherichia coli strain BL21 (DE3) (New England Biolabs, MA, USA). The transformed clones were cultured at 37° C. in LB broth with […] kanamycin, induced by adding 1 mM isopropyl β-D-1-thiogalactopyranoside at optical density of 0.6-0.8, and then incubated at 37° C. for 3 h. For protein purification, cells were pelleted and resuspended in xTractor Buffer containing DNAse I, lysozyme solution, and Protease Inhibitor Cocktail (Takara Bio USA, Inc., CA). The suspension was sonicated and centrifuged. […]
as §2

“Also recorded” adds a separate entry of the source.

T4 sequence (Q2VL90 477-577): as the sequence (Q2VL90 477-577) above

For orientation: Kd means the concentration at which binding is half-saturated. Take `Cc1cc(F)ccc1S(=O)(=O)Nc1nc2ccccc2nc1Nc1cccc(S(=O)(=O)N2CCOCC2)c1` [Compound B7]: on GFP [1], the Kd was determined as 2110 µM.

In the case of `Cc1cc(F)ccc1S(=O)(=O)Nc1nc2ccccc2nc1Nc1cccc(S(=O)(=O)N2CCOCC2)c1` [B7], the “Average GP2a (relative fluorescence intensity, SRCR5/GP2a BiFC)” value in test [2] (listed as H5, 1440 min) is recorded as 0.15; in test [2] (listed as PC, 1440 min), 0.02. Moreover, the “inhibition of the PPI between PRRSV GP2a and CD163 SRCR5 (in words)” value in test [2] (positive control) was “significantly inhibited”. For the same molecule, at GFP-fusion CD163-SRCR2, the “association with GFP-SRCR2 (in words)” value is given as “little or no association; also recorded: did not interact”. Besides, the “association with GFP (in words)” value with GFP [3] is recorded as “little or no association”. The “Average GP4 (relative fluorescence intensity, SRCR5/GP4 BiFC)” value in test [4] (listed as H5, 1440 min) came out at 0.06; in test [4] (listed as PC, 1440 min), 0.24. For the same molecule, the inhibition at 5 µM in test [4] (HEK-293T, read-out: reduction of the YFP fluorescence signal compared with NC (inhibition in GP4/SRCR5 BiFC)) was over 70%. At GFP-fusion CD163-SRCR5, the equilibrium dissociation constant (Kd) is 32 µM.

With `COc1ccccc1NS(=O)(=O)c1cccc(Nc2nc3ccccc3nc2NS(=O)(=O)c2ccc(F)cc2C)c1` [Compound F9], the Kd in test [5] is 24.7 µM.
